# Test system: Panel (Carcinoma cell lines)
# Test: Cytotoxic activity against human cancer cell lines was determined
# Format: functional
smiles,measurement,value
CN(C)CCC1(C2=CCCC2)CC/C(=C\c2ccccc2)C1=O.Cl (stereo unspecified),GI50,16.2 µM
same,Log TCI,-4.49
CN(C)CCC1(C2=CCCC2)CC/C(=C\c2ccc(Cl)cc2)C1=O.Cl (stereo unspecified),GI50,7.08 µM
same,LC50,44.7 µM
same,Log TCI,-4.72
COc1ccc(/C=C2\CCC(CCN(C)C)(C3=CCCC3)C2=O)cc1Br.Cl (stereo unspecified),GI50,4.47 µM
same,LC50,35.5 µM
same,Log TCI,-4.89
COc1cccc(/C=C2\CCC(CCN(C)C)(C3=CCCC3)C2=O)c1.Cl (stereo unspecified),GI50,15.5 µM
same,Log TCI,-4.52
CN(C)CCC1(C2=CCCC2)CC/C(=C\c2ccc3c(c2)OCO3)C1=O.Cl (stereo unspecified),GI50,14.8 µM
same,LC50,60.3 µM
same,Log TCI,-4.52
COc1ccc(/C=C2\CCC(CCN(C)C)(C3=CCCC3)C2=O)cc1.Cl (stereo unspecified),GI50,17.8 µM
same,Log TCI,-4.42
CN(C)CCC1(C2=CCCC2)CC/C(=C\c2ccccc2Cl)C1=O.Cl (stereo unspecified),GI50,11.7 µM
same,LC50,60.3 µM
same,Log TCI,-4.56
COc1ccccc1/C=C1\CCC(CCN(C)C)(C2=CCCC2)C1=O.Cl (stereo unspecified),GI50,15.8 µM
same,LC50,70.8 µM
same,Log TCI,-4.43
